Measured values published in patent US10160747B2, “Compounds and methods for kinase modulation, and indications therefor” (Plexxikon Inc., priority 2016, dated 2018).

Legend:
FLT3-ITD = target: T1, FLT3-ITD (Homo sapiens, UniProt P36888); test: FLT3-ITD recombinant enzyme kinase assay (AlphaScreen); format: biochemical; conditions: 8 pt; read-out: FLT3_ITD 8 pt: IC50
T1 sequence (P36888 1-993): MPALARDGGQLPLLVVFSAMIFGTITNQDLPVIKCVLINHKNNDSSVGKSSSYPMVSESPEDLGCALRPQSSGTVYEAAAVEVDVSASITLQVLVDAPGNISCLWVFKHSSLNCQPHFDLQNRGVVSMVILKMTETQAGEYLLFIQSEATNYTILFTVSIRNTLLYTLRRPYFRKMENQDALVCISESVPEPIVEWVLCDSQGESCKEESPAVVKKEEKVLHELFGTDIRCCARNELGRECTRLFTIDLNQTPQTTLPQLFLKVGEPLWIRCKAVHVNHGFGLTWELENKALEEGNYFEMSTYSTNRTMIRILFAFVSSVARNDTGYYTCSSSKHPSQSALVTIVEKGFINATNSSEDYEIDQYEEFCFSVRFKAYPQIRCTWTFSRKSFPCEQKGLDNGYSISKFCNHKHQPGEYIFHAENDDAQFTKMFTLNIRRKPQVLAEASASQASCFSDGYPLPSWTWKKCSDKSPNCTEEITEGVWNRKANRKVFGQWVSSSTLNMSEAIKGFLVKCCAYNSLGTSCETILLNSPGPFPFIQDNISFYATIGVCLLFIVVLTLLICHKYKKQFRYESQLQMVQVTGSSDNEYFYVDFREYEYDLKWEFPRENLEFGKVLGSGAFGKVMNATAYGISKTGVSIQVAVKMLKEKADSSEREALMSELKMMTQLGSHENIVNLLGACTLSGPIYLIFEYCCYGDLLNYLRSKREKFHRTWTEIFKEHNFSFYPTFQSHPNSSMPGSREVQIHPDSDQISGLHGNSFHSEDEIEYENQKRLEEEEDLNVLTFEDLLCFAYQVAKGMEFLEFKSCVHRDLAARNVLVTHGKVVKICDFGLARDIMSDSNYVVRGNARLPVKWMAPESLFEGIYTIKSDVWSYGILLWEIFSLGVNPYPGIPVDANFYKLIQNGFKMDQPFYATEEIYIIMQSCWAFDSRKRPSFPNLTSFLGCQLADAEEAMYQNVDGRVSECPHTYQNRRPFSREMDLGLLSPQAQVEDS
How it was run: (§1)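 Substrate 30 nM biotin-GG(EEEEY)10EE; ATP 10 μM (FLT3-ITD, FLT3-D835Y) or 100 μM (c-KIT). Detection: AlphaScreen PY20 kit, 10 μg/mL beads, RT 20 + 60 min. Readout 580 nm; IC50.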

c-KIT = target: T2, c-KIT (Homo sapiens, UniProt P10721); test: c-KIT recombinant enzyme kinase assay (AlphaScreen); format: biochemical; conditions: 100 ATP, 8 pt
T2 construct: purchased Millipore 14-559K
T2 sequence (P10721 26-976): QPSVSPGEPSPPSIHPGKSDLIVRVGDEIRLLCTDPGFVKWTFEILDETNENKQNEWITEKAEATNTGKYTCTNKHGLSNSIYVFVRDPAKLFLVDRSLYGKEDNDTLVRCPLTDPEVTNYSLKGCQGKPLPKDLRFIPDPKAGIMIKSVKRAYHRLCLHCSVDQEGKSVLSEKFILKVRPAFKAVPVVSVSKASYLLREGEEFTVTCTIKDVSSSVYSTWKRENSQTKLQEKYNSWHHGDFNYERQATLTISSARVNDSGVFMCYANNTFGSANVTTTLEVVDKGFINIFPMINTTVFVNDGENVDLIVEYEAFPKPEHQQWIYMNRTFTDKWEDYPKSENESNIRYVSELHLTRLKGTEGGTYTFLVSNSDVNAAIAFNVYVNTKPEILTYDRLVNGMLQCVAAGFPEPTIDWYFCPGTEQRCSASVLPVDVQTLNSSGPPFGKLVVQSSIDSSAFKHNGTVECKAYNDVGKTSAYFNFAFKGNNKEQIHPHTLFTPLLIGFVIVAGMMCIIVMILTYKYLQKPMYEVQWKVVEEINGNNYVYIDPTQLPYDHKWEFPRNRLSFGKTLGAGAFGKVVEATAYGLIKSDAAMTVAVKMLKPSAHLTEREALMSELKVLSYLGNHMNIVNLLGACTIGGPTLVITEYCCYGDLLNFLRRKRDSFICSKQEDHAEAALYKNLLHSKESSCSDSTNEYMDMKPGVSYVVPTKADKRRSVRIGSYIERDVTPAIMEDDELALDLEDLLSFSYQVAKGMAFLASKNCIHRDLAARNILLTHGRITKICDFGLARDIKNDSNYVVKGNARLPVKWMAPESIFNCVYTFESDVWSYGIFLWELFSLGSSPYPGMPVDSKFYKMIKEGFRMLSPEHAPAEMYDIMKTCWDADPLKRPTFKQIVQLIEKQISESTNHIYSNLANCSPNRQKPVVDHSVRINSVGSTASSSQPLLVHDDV
How it was run: as §1

Row | Structure (SMILES) | IC50 (FLT3-ITD) | IC50 (c-KIT)
1 | COc1ncc(NC(=O)Cc2ccc(-c3cnc4[nH]nc(OC)c4c3)cc2)cc1C(F)(F)F [Compound P-0212, 2-[4-(3-methoxy-1H-pyrazolo[3,4-b]pyridin-5-yl)phenyl]-N-[6-methoxy-5-(trifluoromethyl)-3-pyridyl]acetamide] | 0.0001 to 10 µM | 0.0001 to 10 µM
2 | O=C(Cc1ccc(-c2cnc3[nH]c(-c4ccnc(N5CCOCC5)c4)cc3c2)c(F)c1)Nc1cncc(C(F)(F)F)c1 [Compound P-0201, 2-[3-fluoro-4-[2-(2-morpholino-4-pyridyl)-1H-pyrrolo[2,3-b]pyridin-5-yl]phenyl]-N-[5-(trifluoromethyl)-3-pyridyl]acetamide] | 0.0001 to 10 µM | 0.0001 to 10 µM
3 | COCCn1cc(Nc2ncc(-c3ccc(CC(=O)Nc4ccc(C(F)(F)F)nc4)cc3)cn2)cn1 [Compound P-0273, 2-[4-[2-[[1-(2-methoxyethyl)pyrazol-4-yl]amino]pyrimidin-5-yl]phenyl]-N-[6-(trifluoromethyl)-3-pyridyl]acetamide] | 0.0001 to 10 µM | 0.0001 to 10 µM
4 | COc1ncc(NC(=O)Cc2ccc(-c3cnc4[nH]nc(NC(=O)C(F)(F)F)c4c3)cc2)cc1C(F)(F)F [Compound P-0215, 2,2,2-trifluoro-N-[5-[4-[2-[[6-methoxy-5-(trifluoromethyl)-3-pyridyl]amino]-2-oxo-ethyl]phenyl]-1H-pyrazolo[3,4-b]pyridin-3-yl]acetamide] | 0.0001 to 10 µM | 0.0001 to 10 µM
5 | CCn1cc(Nc2ncc(-c3ccc(CC(=O)Nc4cc(C(F)(F)F)ccn4)c(F)c3)cn2)cn1 [Compound P-0255, 2-[4-[2-[(1-ethylpyrazol-4-yl)amino]pyrimidin-5-yl]-2-fluoro-phenyl]-N-[4-(trifluoromethyl)-2-pyridyl]acetamide] | 0.0001 to 10 µM | 0.0001 to 10 µM
6 | CCOc1n[nH]c2ncc(-c3ccc(CC(=O)Nc4cnc(OC)c(C(F)(F)F)c4)cc3)cc12 [Compound P-0213, 2-(4-(3-ethoxy-1H-pyrazolo[3,4-b]pyridin-5-yl)phenyl)-N-(6-methoxy-5-(trifluoromethyl)pyridin-3-yl)acetamide] | 0.0001 to 10 µM | 0.0001 to 10 µM
7 | COCCn1cc(Nc2ncc(-c3ccc(CC(=O)Nc4ccc(C(F)(F)F)nc4)c(F)c3)cn2)cn1 [Compound P-0268, 2-[2-fluoro-4-[2-[[1-(2-methoxyethyl)pyrazol-4-yl]amino]pyrimidin-5-yl]phenyl]-N-[6-(trifluoromethyl)-3-pyridyl]acetamide] | 0.0001 to 10 µM | 0.0001 to 10 µM
8 | Cc1nn(C)cc1Nc1ncc(-c2ccc(CC(=O)Nc3cnc(C)c(C(F)(F)F)c3)cc2)cn1 [Compound P-0228, 2-[4-[2-[(1,3-dimethylpyrazol-4-yl)amino]pyrimidin-5-yl]phenyl]-N-[6-methyl-5-(trifluoromethyl)-3-pyridyl]acetamide] | 0.0001 to 10 µM | 0.0001 to 10 µM
9 | CCn1cc(Nc2ncc(-c3ccc(CC(=O)Nc4cnc(C)c(C(F)(F)F)c4)cc3)cn2)cn1 [Compound P-0254, 2-[4-[2-[(1-ethylpyrazol-4-yl)amino]pyrimidin-5-yl]phenyl]-N-[6-methyl-5-(trifluoromethyl)-3-pyridyl]acetamide] | 0.0001 to 10 µM | 0.0001 to 10 µM
10 | CCn1cc(Nc2ncc(-c3ccc(CC(=O)Nc4cc(C(F)(F)F)ccn4)cc3)cn2)cn1 [Compound P-0250, 2-[4-[2-[(1-ethylpyrazol-4-yl)amino]pyrimidin-5-yl]phenyl]-N-[4-(trifluoromethyl)-2-pyridyl]acetamide] | 0.0001 to 10 µM | 0.0001 to 10 µM
11 | O=C(Cc1cc(F)c(-c2cnc(Nc3cnn(C(F)F)c3)nc2)cc1F)Nc1cc(C(F)(F)F)ccn1 [Compound P-0021, 2-[4-[2-[[1-(difluoromethyl)pyrazol-4-yl]amino]pyrimidin-5-yl]-2,5-difluoro-phenyl]-N-[4-(trifluoromethyl)-2-pyridyl]acetamide] | 0.0001 to 10 µM | 0.0001 to 10 µM
12 | O=C(Cc1ccc(-c2cnc(Nc3cnn(C(F)F)c3)nc2)cc1)Nc1cncc(C(F)(F)F)c1 [Compound P-0209, 2-[4-[2-[[1-(difluoromethyl)pyrazol-4-yl]amino]pyrimidin-5-yl]phenyl]-N-[5-(trifluoromethyl)-3-pyridyl]acetamide] | 0.0001 to 10 µM | 0.0001 to 10 µM
13 | Cn1cc(Nc2ncc(-c3cc(F)c(CC(=O)Nc4cc(C(F)(F)F)ccn4)cc3F)cn2)cn1 [Compound P-0019, 2-[2,5-difluoro-4-[2-[(1-methylpyrazol-4-yl)amino]pyrimidin-5-yl]phenyl]-N-[4-(trifluoromethyl)-2-pyridyl]acetamide] | 0.0001 to 10 µM | 0.0001 to 10 µM

Results, then the molecule that gave them:

Row | IC50 (FLT3-ITD) | IC50 (c-KIT) | Structure (SMILES)
14 | 0.0001 to 10 µM | 0.0001 to 10 µM | Cn1cnc(Nc2ncc(-c3ccc(CC(=O)Nc4cc(C(F)(F)F)ccn4)cc3)cn2)c1 [Compound P-0022, 2-[4-[2-[(1-methylimidazol-4-yl)amino]pyrimidin-5-yl]phenyl]-N-[4-(trifluoromethyl)-2-pyridyl]acetamide]
15 | 0.0001 to 10 µM | 0.0001 to 10 µM | O=C(Cc1ccc(-c2cnc(Nc3cnn(C4CC4)c3)nc2)cc1F)Nc1cncc(C(F)(F)F)c1 [Compound P-0238, 2-[4-[2-[(1-cyclopropylpyrazol-4-yl)amino]pyrimidin-5-yl]-2-fluoro-phenyl]-N-[5-(trifluoromethyl)-3-pyridyl]acetamide]
16 | 0.0001 to 10 µM | 0.0001 to 10 µM | CC(C)(O)C#Cc1cc2cc(-c3ccc(CC(=O)Nc4cncc(C(F)(F)F)c4)cc3)cnc2[nH]1 [Compound P-0204, 2-[4-[2-(3-hydroxy-3-methyl-but-1-ynyl)-1H-pyrrolo[2,3-b]pyridin-5-yl]phenyl]-N-[5-(trifluoromethyl)-3-pyridyl]acetamide]
17 | 0.0001 to 10 µM | 0.0001 to 10 µM | COCCn1cc(Nc2ncc(-c3ccc(CC(=O)Nc4cc(C(F)(F)F)ccn4)c(F)c3)cn2)cn1 [Compound P-0270, 2-[2-fluoro-4-[2-[[1-(2-methoxyethyl)pyrazol-4-yl]amino]pyrimidin-5-yl]phenyl]-N-[4-(trifluoromethyl)-2-pyridyl]acetamide]
18 | 0.0001 to 10 µM | 0.0001 to 10 µM | Cn1cc(Nc2ncc(-c3cc(F)c(CC(=O)Nc4cncc(C(F)(F)F)c4)cc3F)cn2)cn1 [Compound P-0207, 2-[2,5-difluoro-4-[2-[(1-methylpyrazol-4-yl)amino]pyrimidin-5-yl]phenyl]-N-[5-(trifluoromethyl)-3-pyridyl]acetamide]
19 | 0.0001 to 10 µM | 0.0001 to 10 µM | COCCn1cc(Nc2ncc(-c3ccc(CC(=O)Nc4cnc(OC)c(C(F)(F)F)c4)c(F)c3)cn2)cn1 [Compound P-0265, 2-[2-fluoro-4-[2-[[1-(2-methoxyethyl)pyrazol-4-yl]amino]pyrimidin-5-yl]phenyl]-N-[6-methoxy-5-(trifluoromethyl)-3-pyridyl]acetamide]
20 | 0.0001 to 10 µM | 0.0001 to 10 µM | COc1ncc(NC(=O)Cc2ccc(-c3cnc(Nc4cnn(C5CC5)c4)nc3)cc2)cc1C(F)(F)F [Compound P-0234, 2-[4-[2-[(1-cyclopropylpyrazol-4-yl)amino]pyrimidin-5-yl]phenyl]-N-[6-methoxy-5-(trifluoromethyl)-3-pyridyl]acetamide]
21 | 0.0001 to 10 µM | 0.0001 to 10 µM | O=C(Cc1ccc(-c2cnc(Nc3cnn(C4CC4)c3)nc2)cc1)Nc1cnc(Cl)c(C(F)(F)F)c1 [Compound P-0233, N-[6-chloro-5-(trifluoromethyl)-3-pyridyl]-2-[4-[2-[(1-cyclopropylpyrazol-4-yl)amino]pyrimidin-5-yl]phenyl]acetamide]
22 | 0.0001 to 10 µM | 0.0001 to 10 µM | O=C(Cc1ccc(-c2cnc(Nc3cnn(C4CC4)c3)nc2)cc1F)Nc1ccc(C(F)(F)F)nc1 [Compound P-0242, 2-[4-[2-[(1-cyclopropylpyrazol-4-yl)amino]pyrimidin-5-yl]-2-fluoro-phenyl]-N-[6-(trifluoromethyl)-3-pyridyl]acetamide]
23 | 0.0001 to 10 µM | 0.0001 to 10 µM | CCn1cc(Nc2ncc(-c3ccc(CC(=O)Nc4cnc(C)c(C(F)(F)F)c4)c(F)c3)cn2)cn1 [Compound P-0261, 2-[4-[2-[(1-ethylpyrazol-4-yl)amino]pyrimidin-5-yl]-2-fluoro-phenyl]-N-[6-methyl-5-(trifluoromethyl)-3-pyridyl]acetamide]
24 | 0.0001 to 10 µM | 0.0001 to 10 µM | Cc1ncc(NC(=O)Cc2ccc(-c3cnc4[nH]c(C#CC(C)(C)O)cc4c3)cc2)cc1C(F)(F)F [Compound P-0220, 2-[4-[2-(3-hydroxy-3-methyl-but-1-ynyl)-1H-pyrrolo[2,3-b]pyridin-5-yl]phenyl]-N-[6-methyl-5-(trifluoromethyl)-3-pyridyl]acetamide]
